Consider 15 compounds from patent US9988377B2, “Small molecule inducers of GDNF as potential new therapeutics for neuropsychiatric disorders” (THE TRUSTEES OF COLUMBIA UNIVERSITY IN THE CITY OF NEW YORK, priority 2011, dated 2018).

Like-named read-outs stand apart in the source and are kept apart here.

Test [1] has as its system GDNF release from C6 cells. The experiment in a line: GDNF releasing potency assay (dose-response in C6 cells). It is filed as cell-based. Conditions: 0.1-50 uM, concentration giving 50% of maximal GDNF release. The procedure: Four compounds were selected for determination of GDNF releasing potency. The EC50 value (Table 3) is defined as the concentration of the compound at which 50% of maximal GDNF release is obtained. The C6 cells were incubated with the selected compounds over a range of concentrations (0.1, 1, 5, 10, 20, 30 and 50 uM for each compound) and the amount of released GDNF at each concentration was via examing the dose-dependent release. A dose-response curve was constructed and the EC50 value was obtained by fitting this curve using GraphPad Prism software.

The test system of test [2] is GDNF release from C6 glioma cells. The experiment in a line: GDNF in-situ ELISA in C6 glioma cells. Type of test: cell-based. Conditions: 10 μM compound, 48-hour incubation, fold over control release, corrected for pre-treatment release; for fold induction at 10 µM: C6 glioma, 48 h, read-out: Fold-Increase of GDNF Concentration. The procedure: The GDNF Emax Immunoassay System from Promega (Madison, Wis.) was used to determine small molecule induced GDNF release from C6 glioma cells (ATCC, Manassas, Va.) with the following protocol. A 96-well ELISA plate was sterilized with UV for 30 minutes. The plate was coated with 100 μl/well of the anti-GDNF monoclonal antibody solution in carbonate coating buffer prepared per the manufacturer's instructions, and incubated overnight at 4° C. The antibody coating buffer was removed from the plate, which was then blocked according to the instructions in the kit. The plate was then incubated with 200 μl/well complete growth medium ([…], 5% FBS, 1% penicillin/streptomycin) for 2×1 h at rt to remove residue of the blocking buffer. After these washes were complete, fresh culture media was added to the wells. C6 cells were seeded at a density of 11,000 cells/well, with a total volume of approximately 150 μl in each well. The plate was incubated at 37° C. in an atmosphere containing 5% CO2. After 24 hours, complete growth medium was replaced with low serum medium (98.5% DMEM, 0.5% FBS, 1% penicillin/streptomycin) and the plate was incubated overnight for cellular synchronization. On the following day, cells were treated with experimental compounds for the indicated time. We used 10 μM concentrations of the tested compounds during a 48-hour incubation. Simultaneously with initiation of treatment, cells were removed from pre-treatment control wells with 5×200 μL washes of TBST (to control for basal GDNF release before the treatment period), and low-serum medium was added to these wells. 6 hours prior to stopping treatment with experimental compounds, the GDNF standard was added to the plate per the manufacturer's instructions. To terminate the treatment, the plate was washed extensively with 200 μl/well TBST washing buffer 5 times, which removed the cells. GDNF release for each well was measured according to GDNF Emax Immunoassay system instructions, and a plate reader was used to measure absorbance at 450 nm. Total GDNF release is calculated from the standard curve using Microsoft Excel. The listed values in Table 1 are presented as fold-increase of release of GDNF over control release of GDNF, corrected for pre-treatment release by subtracting from all values the mean amount of GDNF released in pre-treatment control wells. Statistical significance was determined using the Student's t-test.

Test [3] concerns alcohol intake. Conditions: mice; effect dependent on induction of GDNF in the VTA; cited from earlier work.
The test system of test [4] is alcohol intake. The note with it: rats; effect dependent on induction of GDNF in the VTA; cited from earlier work.
Where [5] appears, read: Rattus norvegicus, C6, C6 cells.

The EC50 is the concentration giving half of the maximal effect. Compound `CCC1CC2C=CC1N(CCc1c[nH]c3ccccc13)C2` (racemic) [Compound 10a, exo-2-[2-(1H-indol-3-yl)ethyl]-7-ethyl-2-azabicyclo[2.2.2]oct-5-ene] came in with an EC50 in test [1] (setting [5]) of 10.2 ± 0.3 µM. Further, the “Fold-Increase of GDNF Concentration” value in test [2] was determined as 3.2 ± 0.2 fold.

The compound `CCC1CC2C=CC1N(CCc1c[nH]c3ccccc13)C2` (racemic) [Compound 12a, endo-2-[2-(1H-indol-3-yl)ethyl]-7-ethyl-2-azabicyclo[2.2.2]oct-5-ene] registered an EC50 in test [1] (C6 cells) of 18.2 ± 0.2 µM. For the same compound, the fold induction at 10 µM in test [2] was found to be 2 ± 0.1.

In the case of `CCOC(=O)c1[nH]c2ccccc2c1CCN1CC2C=CC1C(CC)C2` (racemic) [Compound 12d, endo-ethyl-3-[2-(7-ethyl-2-azabicyclo[2.2.2]oct-5-en-2-yl)ethyl]-1H-indole-2-carboxylate], in test [2], the fold induction at 10 µM is 1.5.

Consider `CCC1CC2C=CC1N(CCc1c[nH]c3ccc(C(F)(F)F)cc13)C2` (racemic) [Compound 12f, endo-7-ethyl-2-[2-(5-trifluoromethyl-1H-indol-3-yl)ethyl]-2-azabicyclo[2.2.2]oct-5-ene], for which, in test [2], the fold induction at 10 µM stood at 2.

For the compound `CCC1CC2C=CC1N(CCc1coc3ccccc13)C2` (racemic) [Compound 12g, endo-2-[2-(benzofuran-3-yl)ethyl]-7-ethyl-2-azabicyclo [2.2.2]oct-5-ene], the concentration giving a half-maximal response (EC50) in test [1] (C6 cells) was determined as 3.6 ± 0.1 µM; in test [1] (setting [5]) it was 3.3 µM. Further, the fold induction at 10 µM in test [2] came out at 2.9 ± 0.1.

`CCC1CC2C=CC1N(CCc1c[nH]c3ccc(F)cc13)C2` (racemic) [Compound 12h, endo-7-ethyl-2-[2-(5-fluoro-1H-indol-3-yl)ethyl]-2-azabicyclo[2.2.2]oct-5-ene]: in test [1] (setting [5]), it took 3.3 µM to reach a half-maximal effect (EC50). Further, the fold induction at 10 µM in test [2] amounted to 3.1 ± 0.2.

On to `CCC1CC2C=CC1N(CCc1nc3ccccc3[nH]1)C2` (racemic) [Compound 12l, endo-2-[2-(1H-benzo[d]imidazol-2-yl)ethyl]-7-ethyl-2-azabicyclo[2.2.2]oct-5-ene], for which the fold induction at 10 µM in test [2] is 1.5.

In the case of `CCC1CC2CCC1N(CCc1c[nH]c3ccccc13)C2` (racemic) [Compound 13a, endo-2-[2-(1H-indol-3-yl)ethyl]-7-ethyl-2-azabicyclo [2.2.2]octane], the fold induction at 10 µM in test [2] turned out to be 2.

In the case of `CCC1CC2CCC1N(CCc1c[nH]c3ccc(F)cc13)C2` (racemic) [Compound 13b, endo-7-ethyl-2-[2-(5-fluoro-1H-indol-3-yl)ethyl]-2-azabicyclo [2.2.2]octane], the fold induction at 10 µM in test [2] was 2.

For `C1=CC2CCC1CN2CCc1c[nH]c2ccccc12` (racemic) [Compound 18a, 2-[2-(1H-indol-3-yl)ethyl]-2-azabicyclo[2.2.2]oct-5-ene], the fold induction at 10 µM in test [2] is 1.6.

Consider `C1=CC2CCC1CN2Cc1c[nH]c2ccccc12` (racemic) [Compound 18b, 2-[(1H-indol-3-yl)methyl]-2-azabicyclo[2.2.2]oct-5-ene], for which the fold induction at 10 µM in test [2] came to 1.6 ± 0.1.

As to `CCOC(=O)C1CC2C=CC1N(CCc1c[nH]c3ccccc13)C2` (racemic) [Compound 21, 7-exo-ethoxycarbonyl-2-[2-(1H-indol-3-yl)ethyl]-2-azabicyclo[2.2.2]oct-5-ene], in test [2], the fold induction at 10 µM came to 1.

Regarding `CCOC(=O)C1CC2C=CC1N(CCc1c[nH]c3ccccc13)C2` (racemic) [Compound 22, 7-endo-ethoxycarbonyl-2-[2-(1H-indol-3-yl)ethyl]-2-azabicyclo[2.2.2]oct-5-ene], the “Fold-Increase of GDNF Concentration” value in test [2] is 2.0 ± 0.0 fold.

Turning to `CC[C@H]1C[C@H]2C[C@H]3c4[nH]c5ccc(O)cc5c4CCN(C2)[C@@H]13` [noribogaine], the “self-administration and reinstatement of alcohol intake” value is “reduce self-administration and reinstatement of alcohol intake” in the test on alcohol intake [3]; “reduce self-administration and reinstatement of alcohol intake” in the test with alcohol intake [4].

Take ibogaine: the “self-administration and reinstatement of alcohol intake” value in the test on alcohol intake [3] was “reduce self-administration and reinstatement of alcohol intake”; in the test on alcohol intake [4], “reduce self-administration and reinstatement of alcohol intake”.
